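Dose response: 5 concentrations. Exposure: 48 h. Format: 96-well plates. Endpoint: linear interpolation; highest concentration if not reached. Here, GI50 denotes the concentration required for 50% inhibition of growth.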 Activity calls are given as the source filed them. Rule as the data show it: active = GI50 up to about 1.1 µM and inactive = higher.
Assays:
Test in all cases: DTP human tumour cell line panel, 48 h
HCC 2998 = tested on: HCC 2998
Malme-3M = tested on: Malme-3M
HOP-62 = tested on: HOP-62
OVCAR-4 = tested on: OVCAR-4
RXF 393 = tested on: RXF 393
TK-10 = tested on: TK-10
786-0 = tested on: 786-0
MDA-MB-435 = tested on: MDA-MB-435
U-251 = tested on: U-251
DU-145 = tested on: DU-145
UACC-257 = tested on: UACC-257
UACC-62 = tested on: UACC-62
NCI-H460 = tested on: NCI-H460
EKVX = tested on: EKVX
M14 = tested on: M14
PC-3 = tested on: PC-3
OVCAR-5 = tested on: OVCAR-5
NCI-H522 = tested on: NCI-H522
HCT-116 = tested on: HCT-116
CAKI-1 = tested on: CAKI-1

SMILES	GI50 (HCC 2998)	GI50 (Malme-3M)	GI50 (HOP-62)	GI50 (OVCAR-4)	GI50 (RXF 393)	GI50 (TK-10)	GI50 (786-0)	GI50 (MDA-MB-435)	GI50 (U-251)	GI50 (DU-145)	GI50 (UACC-257)	GI50 (UACC-62)	GI50 (NCI-H460)	GI50 (EKVX)	GI50 (M14)	GI50 (PC-3)	GI50 (OVCAR-5)	GI50 (NCI-H522)	GI50 (HCT-116)	GI50 (CAKI-1)
Cn1cc(C2NC(=O)c3ccccc3N2)c2ccccc21 (stereo unspecified)	1.19 µM (inactive)	0.316 µM (active)	0.861 µM (active)	0.306 µM (active)	0.681 µM (active)	2.94 µM (inactive)	0.955 µM (active)	0.0785 µM (active)	0.889 µM (active)	0.887 µM (active)	5.6 µM (inactive)	0.373 µM (active)	1.06 µM (active)	0.998 µM (active)	0.578 µM (active)	0.188 µM (active)	1.18 µM (inactive)	0.695 µM (active)	0.587 µM (active)	
CCCCc1ccc(-n2sc3ncc(-c4ccccc4)cc3c2=O)cc1	> 100 µM (inactive)		> 100 µM (inactive)	42.1 µM (inactive)	> 100 µM (inactive)	> 100 µM (inactive)	> 100 µM (inactive)	> 100 µM (inactive)	> 100 µM (inactive)	> 100 µM (inactive)	> 10 µM (inactive)	> 100 µM (inactive)	> 100 µM (inactive)	> 100 µM (inactive)	> 100 µM (inactive)	> 100 µM (inactive)	> 100 µM (inactive)		> 100 µM (inactive)	64.3 µM (inactive)
CCOc1ccccc1/C=C1\NC(=O)N(/C=C2\C(=O)Oc3ccccc3C2=O)C1=O	74 µM (inactive)		53.1 µM (inactive)	44.2 µM (inactive)	9.82 µM (inactive)	24.8 µM (inactive)	50.9 µM (inactive)	42.6 µM (inactive)	47 µM (inactive)	44.5 µM (inactive)	40.1 µM (inactive)	32.8 µM (inactive)	39.4 µM (inactive)	51.6 µM (inactive)	51.4 µM (inactive)	42.5 µM (inactive)	> 100 µM (inactive)	29.2 µM (inactive)	39.1 µM (inactive)	99.1 µM (inactive)
CC(=O)C(=[N+]=[N-])C(=O)N1CCOC1=O	> 10 µM (inactive)	> 10 µM (inactive)	> 10 µM (inactive)	> 10 µM (inactive)	> 10 µM (inactive)	> 10 µM (inactive)	> 10 µM (inactive)	> 10 µM (inactive)	> 10 µM (inactive)	> 10 µM (inactive)	> 10 µM (inactive)	> 10 µM (inactive)	> 10 µM (inactive)	> 10 µM (inactive)	> 10 µM (inactive)	> 10 µM (inactive)	> 10 µM (inactive)		> 10 µM (inactive)	> 10 µM (inactive)
Nc1ccccc1CC(O)C(=O)O (stereo unspecified)	> 100 µM (inactive)	> 100 µM (inactive)	> 100 µM (inactive)		> 100 µM (inactive)	> 100 µM (inactive)	> 100 µM (inactive)	> 100 µM (inactive)	> 100 µM (inactive)	> 100 µM (inactive)	> 100 µM (inactive)	> 100 µM (inactive)	> 100 µM (inactive)	> 100 µM (inactive)	> 100 µM (inactive)	> 100 µM (inactive)	> 100 µM (inactive)		> 100 µM (inactive)	> 100 µM (inactive)
COc1ccc(C=C2C(C)=NN(c3cccc(Cl)c3)C23C(Cl)C(=O)N3c2nc3ccccc3s2)cc1 (stereo unspecified)	3 µM (inactive)		20 µM (inactive)	23.9 µM (inactive)	12.7 µM (inactive)	26.8 µM (inactive)	16 µM (inactive)	16.5 µM (inactive)	14.6 µM (inactive)	17.5 µM (inactive)	24.9 µM (inactive)		24 µM (inactive)	27.3 µM (inactive)	17.2 µM (inactive)	17.2 µM (inactive)	17.3 µM (inactive)	8.53 µM (inactive)	15.5 µM (inactive)	23.2 µM (inactive)
Cc1c(N2C(=O)/C(=C/C=C/c3ccccc3)N=C2c2ccccc2)c(=O)n(-c2ccccc2)n1C		28.8 µM (inactive)	26.5 µM (inactive)	17.8 µM (inactive)	17.9 µM (inactive)	32.9 µM (inactive)	29.3 µM (inactive)	17 µM (inactive)	16.8 µM (inactive)	40.8 µM (inactive)	18.9 µM (inactive)	16.4 µM (inactive)	29.4 µM (inactive)	15.6 µM (inactive)	31.4 µM (inactive)	25.6 µM (inactive)	24.8 µM (inactive)	16 µM (inactive)	34.8 µM (inactive)	37.8 µM (inactive)
CC(=O)n1nc(-c2ccccc2)n(/N=C/c2ccc([N+](=O)[O-])cc2)c1=O	> 100 µM (inactive)	90.8 µM (inactive)		41.3 µM (inactive)	65.9 µM (inactive)	> 100 µM (inactive)	> 100 µM (inactive)	> 100 µM (inactive)	> 100 µM (inactive)	> 100 µM (inactive)	> 100 µM (inactive)	> 100 µM (inactive)	> 100 µM (inactive)	31.1 µM (inactive)	> 100 µM (inactive)	> 100 µM (inactive)	> 100 µM (inactive)	51.3 µM (inactive)	> 100 µM (inactive)	> 100 µM (inactive)
CC1(C)N=C(N)N=C(N)N1c1cccc(OCc2cccc(N)c2)c1		> 71.9 µM (inactive)	> 91.6 µM (inactive)	> 69.5 µM (inactive)	41.9 µM (inactive)	> 52.1 µM (inactive)	10.9 µM (inactive)	16.4 µM (inactive)	14.7 µM (inactive)	> 86.3 µM (inactive)	6.14 µM (inactive)	6.11 µM (inactive)	3.87 µM (inactive)	> 88.3 µM (inactive)	58.5 µM (inactive)	> 38.7 µM (inactive)	26.9 µM (inactive)	26.4 µM (inactive)	13.3 µM (inactive)	> 100 µM (inactive)
NC1CNC(=O)c2cscc21 (stereo unspecified)	> 100 µM (inactive)	> 100 µM (inactive)		> 100 µM (inactive)	> 100 µM (inactive)		> 100 µM (inactive)	> 100 µM (inactive)	> 100 µM (inactive)	> 100 µM (inactive)	> 100 µM (inactive)	> 100 µM (inactive)	> 100 µM (inactive)	> 100 µM (inactive)	> 100 µM (inactive)	53.2 µM (inactive)	> 100 µM (inactive)	> 100 µM (inactive)	> 100 µM (inactive)	> 100 µM (inactive)
[N-]=[N+]=Nc1c(-c2ccccc2)c(=O)n(-c2ccccc2)c2ccccc12	35.2 µM (inactive)	19.3 µM (inactive)	99.5 µM (inactive)	64 µM (inactive)	45.7 µM (inactive)	> 100 µM (inactive)	> 100 µM (inactive)	60.8 µM (inactive)	52.1 µM (inactive)	> 100 µM (inactive)	65.8 µM (inactive)	56 µM (inactive)	46.5 µM (inactive)	17.6 µM (inactive)	62.2 µM (inactive)	32.4 µM (inactive)		27.7 µM (inactive)	34.7 µM (inactive)	
Fc1ccc(-c2sc(-c3ccsc3)cc2Cc2ccsc2)cc1	> 10 µM (inactive)	> 10 µM (inactive)	> 10 µM (inactive)	> 10 µM (inactive)	> 10 µM (inactive)	> 10 µM (inactive)	> 10 µM (inactive)	> 10 µM (inactive)		> 10 µM (inactive)	> 10 µM (inactive)	> 10 µM (inactive)		> 10 µM (inactive)	> 10 µM (inactive)	> 10 µM (inactive)				> 10 µM (inactive)
O=c1c(C(c2ccc(C(c3c(O)oc4cc(O)ccc4c3=O)c3c(O)oc4cc(O)ccc4c3=O)cc2)c2c(O)oc3cc(O)ccc3c2=O)c(O)oc2cc(O)ccc12	> 100 µM (inactive)	> 100 µM (inactive)	> 100 µM (inactive)	93.1 µM (inactive)	> 100 µM (inactive)	> 100 µM (inactive)		> 100 µM (inactive)	> 100 µM (inactive)	> 100 µM (inactive)	> 100 µM (inactive)	> 100 µM (inactive)	> 100 µM (inactive)	> 100 µM (inactive)	> 100 µM (inactive)	> 100 µM (inactive)	> 100 µM (inactive)		> 100 µM (inactive)	> 100 µM (inactive)
[O-][Cl+3]([O-])([O-])[O-].[O-][Cl+3]([O-])([O-])[O-].c1ccn2c(N3CCCC3)[n+]3c4ccccc4n4c(N5CCCC5)[n+]5ccccc5c4c3c2c1	78.3 µM (inactive)	36.2 µM (inactive)		> 100 µM (inactive)	38.3 µM (inactive)	> 100 µM (inactive)	27.6 µM (inactive)	> 100 µM (inactive)	28.2 µM (inactive)	> 100 µM (inactive)	34.6 µM (inactive)	41.8 µM (inactive)	94.4 µM (inactive)	> 100 µM (inactive)	> 100 µM (inactive)	46.5 µM (inactive)	> 100 µM (inactive)	64.1 µM (inactive)	> 100 µM (inactive)	> 100 µM (inactive)
